Assay results taken from PubChem BioAssay (NCI).
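Results reflect a 48-hour exposure of cells in 96-well plates to compound at five concentrations. Abbreviation: GI50, concentration required for 50% inhibition of growth. At the TGI there is no net growth.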

Experiments:
Experiment in all cases: growth of human tumour cells (NCI), 48 h
TK-10 renal = test system: TK-10 renal
NCI-H226 lung = test system: NCI-H226 lung
U251 CNS = test system: U251 CNS
A498 renal = test system: A498 renal
SNB-75 CNS = test system: SNB-75 CNS
KM12 colon = test system: KM12 colon
SNB-19 CNS = test system: SNB-19 CNS
OVCAR-5 ovarian = test system: OVCAR-5 ovarian
NCI-H460 lung = test system: NCI-H460 lung
SF-295 CNS = test system: SF-295 CNS

| Structure (SMILES) | TGI (TK-10 renal) | TGI (NCI-H226 lung) | TGI (U251 CNS) | TGI (A498 renal) | TGI (SNB-75 CNS) | TGI (KM12 colon) | TGI (SNB-19 CNS) | TGI (OVCAR-5 ovarian) | TGI (NCI-H460 lung) | TGI (SF-295 CNS) | GI50 (U251 CNS) | GI50 (A498 renal) | GI50 (SNB-75 CNS) | GI50 (KM12 colon) | GI50 (SNB-19 CNS) | GI50 (OVCAR-5 ovarian) | GI50 (NCI-H460 lung) | GI50 (SF-295 CNS) | GI50 (TK-10 renal) | GI50 (NCI-H226 lung) |
| --- | --- | --- | --- | --- | --- | --- | --- | --- | --- | --- | --- | --- | --- | --- | --- | --- | --- | --- | --- | --- |
| CCCCCCCCSC(SCCCCCCCC)=C1C(=O)N(c2ccccc2)N=C1C | > 100 µM | > 100 µM | 34 µM | 92.7 µM | > 100 µM | > 100 µM | > 100 µM | > 100 µM | > 100 µM | > 100 µM |  |  |  |  |  |  |  |  |  |  |
| C1CCN2CC34CC(CC5CCCN(C6CCCC3N6)C54)C2C1 (stereo not drawn) | > 100 µM | > 100 µM | > 100 µM | > 100 µM | > 100 µM | > 100 µM | > 100 µM | > 100 µM | > 100 µM | > 100 µM |  |  |  |  |  |  |  |  |  |  |
| O=C(/C=C/c1cccs1)Nc1ncc(Cc2ccccc2F)s1 | > 100 µM | > 100 µM | > 100 µM | 0.899 µM | 0.651 µM | > 100 µM | > 100 µM | > 100 µM | > 100 µM | > 100 µM | 350 nM | 0.175 µM | 154 nM | 205 nM | 0.361 µM | 0.506 µM | 335 nM | 244 nM |  |  |
| CN1C=CN(Cc2ccc(-c3ccccn3)nc2)[CH-]1.CN1C=CN(Cc2ccc(-c3ccccn3)nc2)[CH-]1.[Au+3] | 27 µM | > 64.2 µM | 20.8 µM | > 68.8 µM | > 51.8 µM | > 38.2 µM | 40 µM | 27.3 µM | > 100 µM | > 100 µM | 4350 nM | 8.53 µM | 13900 nM | 1890 nM | 7.83 µM | 5.84 µM | 3370 nM | 4870 nM | 5.09 µM | 5.65 µM |
| O=C(Nc1ccc(-c2nc3ccc(NC(=O)c4ccc(Cl)cc4)cc3[nH]2)cc1)c1ccc(Cl)cc1 | 5.8 µM | 31.8 µM | 3.21 µM | 16.8 µM | 7.93 µM | 5.38 µM | 28.4 µM | 19.2 µM | 4.03 µM | 8.77 µM | 412 nM | 3.56 µM | 1520 nM | 2160 nM | 13.8 µM | 5.45 µM | 1790 nM | 230 nM | 2.39 µM | 15.1 µM |
| O=C1CCCC2COc3ccc(O)c1c32 (stereo not drawn) | > 100 µM | > 100 µM | > 100 µM | > 100 µM | > 100 µM | > 100 µM | > 100 µM | > 100 µM | > 100 µM | > 100 µM |  |  |  |  |  |  |  |  |  |  |
| S=C1OC2C3C4CC5C3C(O1)C1C5C4C21 (stereo not drawn) | > 100 µM | > 100 µM | > 100 µM | > 100 µM | > 100 µM | > 100 µM | > 100 µM | > 100 µM | > 100 µM | > 100 µM |  |  |  |  |  |  |  |  |  |  |
| COC(=N)/C(=C1\OC(N)=C(c2ccc(Cl)cc2)C1=O)c1ccc(Cl)cc1 | > 100 µM | > 100 µM | > 100 µM | > 100 µM | > 100 µM | > 100 µM | > 100 µM | > 100 µM | > 100 µM | > 100 µM |  |  |  |  |  |  |  |  |  |  |
| CCCC/C(C)=N/NC(N)=S | > 100 µM | > 100 µM | > 100 µM | > 100 µM | > 100 µM | > 100 µM | > 100 µM | > 100 µM | > 100 µM | > 100 µM |  |  |  |  |  |  |  |  |  |  |
| O=C(O)C(O)C(O)C1[O][Sb][O]C1CO (stereo not drawn) | > 100 µM | > 100 µM | > 100 µM | > 100 µM | > 100 µM | > 100 µM | > 100 µM | > 100 µM | > 100 µM | > 100 µM | > 100000 nM | > 100 µM | > 100000 nM | > 100000 nM | > 100 µM | > 100 µM | > 100000 nM | > 100000 nM | > 100 µM | > 100 µM |
| COc1cc(Nc2ncc(-c3ccccc3)o2)cc(OC)c1OC | > 25 µM | > 25 µM | > 25 µM | > 7.47 µM | > 19.2 µM | > 25 µM | > 25 µM | > 25 µM | > 25 µM | > 25 µM | 4350 nM | 0.607 µM | 577 nM | 152 nM | 12.6 µM | 3.88 µM | 161 nM | 2700 nM | 1.62 µM | 2.97 µM |
| Cc1ccc(NC(=O)CCC(=O)C(C#N)c2ccc(Cl)cc2)cc1C (stereo not drawn) | > 100 µM | > 100 µM | > 100 µM | > 100 µM | > 100 µM | > 100 µM | > 100 µM | > 100 µM | > 100 µM | > 100 µM |  |  |  |  |  |  |  |  |  |  |
| O=C(N/N=C\c1cc(Cl)ccc1O)N/N=C/c1cc(Cl)ccc1O | > 100 µM | > 100 µM | > 100 µM | > 100 µM | > 100 µM | > 100 µM | > 100 µM | > 100 µM | > 100 µM | > 100 µM | 997 nM | > 100 µM | 969 nM | 13100 nM | > 100 µM | > 100 µM | 518 nM | 2370 nM | > 100 µM | > 100 µM |
